Assay results taken from US11760784B2, “Compositions comprising PEDF-derived short peptides and uses thereof” (BRIM Biotechnology, Inc., priority 2016, dated 2023).
“Also recorded” adds a separate entry of the source.

Columns and labels:
[1] = system: desiccating stress-induced dry eye; experiment: Corneal fluorescein staining in desiccating stress-induced dry eye (CEC) mice; type: in vivo, C57BL/6 mice; conditions: therapeutic: CEC 14 days to induce dry eye, then peptide on the eyes for 5 days
Procedure: In an animal model for dry eye diseases, mice were placed in a controlled environment chamber (CEC) to induce dry eyes as previously described (Barabino et al., 2005). Mice placed in the CEC were exposed to a relative humidity (RH)<25%, temperature of 20 to 22° C., with an airflow of 15 L/min, 12 hours per day. Non-Stressed mice were kept in a normal environment (RH >50%, no air flow, temperature of 21-23° C.) for the same duration. After 14 days, non-stressed mice were treated with vehicle, while the stressed mice were treated with either a test peptide (e.g., the 29mer PDSP) or vehicle solution (Vehicle group) for 5 days. Then, the cornea was examined with fluorescein staining.
Seven to 8-week-old female C57BL/6 mice were used for these experiments. Experimental procedures were approved by the Mackay Memorial Hospital Review Board and conducted according to the ARVO Statement for the Use of Animals in Ophthalmic and Vision Research.
(§1) Dry eye was induced by placing mice in a controlled environment chamber (CEC) as previously described (Barabino et al., 2005). Briefly, mice placed in the CEC were exposed to a relative humidity (RH)<25%, temperature of 20 to 22° C., and airflow of 15 L/min, 12 hours per day. Non-stressed (NS) mice without stress-induced dry eye were kept in a normal environment (RH >50%, no air flow, temperature of 21-23° C.) for the same duration. Corneal fluorescein staining and
Animals were anesthetized by an intraperitoneal injection of a mixture of zoletil (6 mg/kg) and xylazine (3 mg/kg). Corneal epithelial injury was determined by staining with topical fluorescein (Fluor-I-Strip, Ayerst Laboratories, Philadelphia, Pa.). Corneal fluorescein staining was examined with a slit-lamp biomicroscope under cobalt blue light and photographed with a digital camera. Dye staining of the cornea was scored in a manner as follows: score 0 for no punctuate staining; score 1 when less than one third of the cornea was stained; score 2 when two thirds or less was stained; and score 3 when more than two thirds was stained (Horwath-Winter J 2013).
To determine whether PDSP have therapeutic effects in a desiccating stress (DS)-induced ocular surface defects, mice were housed at controlled environment chamber (CEC) for 14 days to create ocular surface disruption. After 14 days in CEC, we used mice with fluorescence scores that are above 2 for the first experiments (FIG. 1A). Subsequently, dry eyes were treated topically with PDSP at 25-200 μM (3 times/day) or PDSP vehicle (1% CMC in BSS) for another 5 days while maintaining the same desiccating stress protocol.
To investigate whether the PDSP can suppress DS-induced corneal epithelial disruption, we applied the 14-day desiccating stress protocol to mice, and treated these mice topically with PDSP 3 times a day.

[2] = system: desiccating stress-induced dry eye; experiment: Tear production by phenol red thread test in CEC dry eye mice; type: in vivo, C57BL/6 mice; conditions: for ability to induce tear production (alanine scanning of the 29mer): CEC dry eye mice, phenol red thread method (FIG. 9)
Procedure: as §1
Tear production was measured with phenol red-impregnated cotton threads (Zone-Quick; Oasis, Glendora, CA). The validity of this test in mice was performed as previously described (Dursun et al., 2002). The threads were held with jeweler forceps and placed in the lateral canthus for 60 seconds. The tear production is expressed in millimeters of thread that is wet by the tear and turned red.
To determine whether PDSP have therapeutic effects in a desiccating stress (DS)-induced ocular surface defects, mice were housed at controlled environment chamber (CEC) for 14 days to create ocular surface disruption. After 14 days in CEC, we used mice with fluorescence scores that are above 2 for the first experiments (FIG. 1A). […]

C2C12 cells = experiment: Cell viability of C2C12 cells in culture (MTT assay), alanine scanning; type: cell-based; conditions: C2C12 cell cultures (FIG. 10)
Procedure: This was tested with cell viability in cell cultures. […] Cell viability may be assessed with staining and cell number counts or with MTT assays. These techniques are well known in the art.

[3] = system: desiccating stress-induced dry eye; experiment: Corneal fluorescein staining in desiccating stress-induced dry eye (CEC) mice; type: in vivo, C57BL/6 mice; conditions: CEC 14 days, then peptide for 3 days (FIG. 11); listed as mouse PDSP

Row | Substance | corneal surface damage by fluorescein staining [1] | ability to induce tear production (alanine scanning of the 29mer) [2] | ability to sustain/enhance viabilities of the cells (alanine scanning of the 29mer) (C2C12 cells) | tear production (phenol red thread), human vs mouse PDSP ([2]; CEC 14 days, then peptide for 3 days (FIG. 12), listed as mouse PDSP) | corneal damage by corneal fluorescein staining, human vs mouse 29mer [3]
1 | Q98A: human PDSP 29mer with alanine substitution at residue 6 (Q98) (SLGAEARTESIIHRALYYDLISSPDIHGT; UniProt P36955 93-121, looked up, variant Q98A) | substantial loss of PDSP activity | substantial losses of abilities of PDSP to induce tear production | substantially abolished |  | 
2 | I104A: human PDSP 29mer with alanine substitution at residue 12 (I104) (SLGAEQRTESIAHRALYYDLISSPDIHGT; UniProt P36955 93-121, looked up, variant I104A) | substantial loss of PDSP activity | substantial losses of abilities of PDSP to induce tear production | substantially abolished |  | 
3 | R106A: human PDSP 29mer with alanine substitution at residue 14 (R106) (SLGAEQRTESIIHAALYYDLISSPDIHGT; UniProt P36955 93-121, looked up, variant R106A) | substantial loss of PDSP activity | substantial losses of abilities of PDSP to induce tear production | substantially abolished |  | 
4 | A96G: human PDSP 29mer with glycine substitution at residue 4 (A96) (Ac-SLGGEQRTESIIHRALYYDLISSPDIHGT-NH2; UniProt P36955 93-121, looked up, variant A96G) | substantial loss of PDSP activity | substantial losses of abilities of PDSP to induce tear production | substantially abolished |  | 
5 | moPDSP 29mer: corresponding mouse sequence SLGAEHRTESVIHRALYYDLITNPDIHST (SEQ ID NO:5) (listed as Mus musculus) |  |  |  | capable of restore; also recorded: improved tear productions to the same extent | capable of restore the ocular surface damages
